Values quoted from earlier work, collected in patent EP4748406A1, “MEDICAL ADHESIVE AGENT AND MEDICAL ADHESIVE SHEET” (Nitto Denko Corporation, priority 2023, dated 2025).

For `C=C(C)C(=O)O` [MAA, methacrylic acid], the “water solubility at 20°C” value is listed as 9.7 g/100 mL.
